Reference: patent US12171755B2, “PAPD5 inhibitors and methods of use thereof” (Children's Medical Center Corporation, priority 2017, dated 2024)

Molecular target: T1, PAPD5 (Homo sapiens, UniProt Q8NDF8)
T1 construct: made in house
Assay: High-throughput luminescence (KinaseGlo) RNA polyadenylation assay, ATP utilization by recombinant PAPD5
Type: biochemical
Conditions: Table 4 (entries of Table 5), ratio of luminescence with inhibitor to DMSO; for Fold-change determined at compound concentration 33 μM: 33 μM compound; for Fold-change determined at compound concentration 100 μM: 100 μM compound, higher = higher inhibition
How it was run: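 Values are ratios of inhibitor to DMSO luminescence, so larger numbers mean less ATP consumed. Screening was run in duplicate with a 2 h room-temperature reaction of recombinant PAPD5, ATP and oligo RNA substrate plus compound. Residual ATP was detected after a 10 min KinaseGlo step.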

T1 sequence (Q8NDF8 68-698 isoform Q8NDF8-5): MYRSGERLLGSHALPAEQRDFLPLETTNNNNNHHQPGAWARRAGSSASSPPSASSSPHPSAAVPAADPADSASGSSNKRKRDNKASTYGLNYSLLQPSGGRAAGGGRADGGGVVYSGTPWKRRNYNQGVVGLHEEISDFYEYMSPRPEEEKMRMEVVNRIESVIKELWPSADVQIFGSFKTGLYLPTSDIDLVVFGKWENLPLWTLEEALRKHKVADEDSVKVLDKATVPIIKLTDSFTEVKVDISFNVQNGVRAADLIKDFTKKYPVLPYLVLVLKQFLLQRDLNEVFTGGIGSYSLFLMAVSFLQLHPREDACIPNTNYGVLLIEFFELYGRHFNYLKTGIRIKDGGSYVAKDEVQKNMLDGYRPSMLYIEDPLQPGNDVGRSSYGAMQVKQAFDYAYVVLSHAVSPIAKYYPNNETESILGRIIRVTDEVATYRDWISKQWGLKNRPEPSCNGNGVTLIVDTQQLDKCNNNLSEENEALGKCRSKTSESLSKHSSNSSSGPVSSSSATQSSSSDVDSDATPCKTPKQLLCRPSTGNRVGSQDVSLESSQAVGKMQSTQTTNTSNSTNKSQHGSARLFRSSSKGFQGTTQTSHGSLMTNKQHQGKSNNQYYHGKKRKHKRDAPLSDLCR

Structure (SMILES)	Fold-change determined at compound concentration 10 μM (10 μM compound)	Fold-change determined at compound concentration 33 μM	Fold-change determined at compound concentration 100 μM
CCSc1nnc(NC(=O)c2cc(=O)c3cc(C)c(C)cc3o2)s1 [Entry 124, N-(5-ethylsulfanyl-1,3,4-thiadiazol-2-yl)-6,7-dimethyl-4-oxochromene-2-carboxamide]	1.241	1.437	1.858
CSc1nnc(NC(=O)c2cc(=O)c3cc(C)c(C)cc3o2)s1 [Entry 125, 6,7-dimethyl-N-[5-(methylsulfanyl)-1,3,4-thiadiazol-2-yl]-4-oxo-4H-chromene-2-carboxamide]	–	1.147	1.444
Cc1ccc2c(=O)cc(C(=O)Nc3nnc(CC(C)C)s3)oc2c1C [Entry 126, 7,8-dimethyl-N-[5-(2-methylpropyl)-1,3,4-thiadiazol-2-yl]-4-oxochromene-2-carboxamide]	–	1.15	1.302
CCCc1nnc(NC(=O)c2cc(=O)c3cc(C)c(C)cc3o2)s1 [Entry 127, 6,7-dimethyl-4-oxo-N-(5-propyl-1,3,4-thiadiazol-2-yl)-4H-chromene-2-carboxamide]	–	1.397	1.984
CCOC(=O)Cc1cc(=O)oc2cc(O)cc(O)c12 [Entry 128, Ethyl (5,7-dihydroxy-2-oxo-2H-chromen-4-yl)acetate]	–	1.314	1.957
CCOc1ccc2oc(=O)cc(CN3CCN(C(=O)c4ccc(OC)c(OC)c4)CC3)c2c1 [Entry 129, 4-[[4-(3,4-dimethoxybenzoyl)piperazin-1-yl]methyl]-6-ethoxychromen-2-one]	–	1.153	1.395
Cc1cc(=O)oc2cc(OCC(=O)Nc3ccc(O)c(C(=O)O)c3)ccc12 [Entry 130, 2-hydroxy-5-[[2-(4-methyl-2-oxochromen-7-yl)oxyacetyl]amino]benzoic acid]	–	1.086	1.212
COc1ccc(-c2coc3c2c(C)cc2oc(=O)c(CC(=O)O)c(C)c23)cc1 [Entry 132, [3-(4-methoxyphenyl)-4,9-dimethyl-7-oxo-7H-furo[2,3-f]chromen-8-yl]acetic acid]	–	1.303	1.774
COc1ccc(NS(=O)(=O)c2cc3[nH]c(=O)c(=O)[nH]c3cc2C)cc1Cl [Entry 135, N-(3-chloro-4-methoxyphenyl)-7-methyl-2,3-dioxo-1,4-dihydroquinoxaline-6-sulfonamide]	–	1.191	1.347
Cc1cc2[nH]c(=O)c(=O)[nH]c2cc1S(=O)(=O)Nc1ccc(OC(F)(F)F)cc1 [Entry 137, 7-methyl-2,3-dioxo-N-[4-(trifluoromethoxy)phenyl]-1,4-dihydroquinoxaline-6-sulfonamide]	–	1.12	1.301
COc1cc(Cl)c(NS(=O)(=O)c2cc3[nH]c(=O)c(=O)[nH]c3cc2C)c(OC)c1 [Entry 138, N-(2-chloro-4,6-dimethoxyphenyl)-7-methyl-2,3-dioxo-1,4-dihydroquinoxaline-6-sulfonamide]	–	1.161	1.317
COc1ccc(-c2[nH]nc3nc(-c4cc(OC)c(OC)c(OC)c4)cc(C(=O)O)c23)cc1 [Entry 141, 3-(4-methoxyphenyl)-6-(3,4,5-trimethoxyphenyl)-2H-pyrazolo[3,4-b]pyridine-4-carboxylic acid]	–	1.308	1.882
CC1=C2C(=NC(=O)CC2c2ccc(O)cc2)N(c2ccc3nncn3n2)N1 (stereo not shown) [Entry 147, 4-(4-hydroxyphenyl)-3-methyl-1-([1,2,4]triazolo[4,3-b]pyridazin-6-yl)-4,5-dihydro-2H-pyrazolo[3,4-b]pyridin-6-one]	–	1.118	1.243
CCOC(=O)c1ccc(NC(=O)CCc2c(C)nc3nc[nH]n3c2=O)cc1 [Entry 149, ethyl 4-[3-(5-methyl-7-oxo-1H-[1,2,4]triazolo[1,5-a]pyrimidin-6-yl)propanoylamino]benzoate]	–	1.183	1.309

Now from value to compound:

Fold-change determined at compound concentration 10 μM (10 μM compound)	Fold-change determined at compound concentration 33 μM	Fold-change determined at compound concentration 100 μM	Structure (SMILES)
–	1.195	1.653	CC(Oc1ccc2c3c(c(=O)oc2c1)CCC3)C(=O)O (stereo not shown) [Entry 131, 2-[(4-Oxo-1,2,3,4-tetrahydrocyclopenta[c]chromen-7-yl)oxy]propanoic acid]
–	1.186	1.508	O=c1oc2cc(OCc3nnn[nH]3)c(Cl)cc2c2c1CCC2 [Entry 133, 8-chloro-7-(1H-tetrazol-5-ylmethoxy)-2,3-dihydrocyclopenta[c]chromen-4(1H)-one]
–	1.124	1.298	Cc1cc(Cl)ccc1NS(=O)(=O)c1cc2[nH]c(=O)c(=O)[nH]c2cc1C [Entry 134, N-(4-chloro-2-methylphenyl)-7-methyl-2,3-dioxo-1,4-dihydroquinoxaline-6-sulfonamide]
–	1.082	1.303	COc1ccc(S(=O)(=O)Nc2cc3c(cc2Oc2ccccc2)n(C)c(=O)c(=O)n3C)cc1 [Entry 136, N-(1,4-dimethyl-2,3-dioxo-7-phenoxy-1,2,3,4-tetrahydroquinoxalin-6-yl)-4-methoxybenzenesulfonamide]
–	1.272	1.549	CCOC(=O)c1cccc(NS(=O)(=O)c2cc3[nH]c(=O)c(=O)[nH]c3cc2C)c1 [Entry 139, ethyl 3-[(7-methyl-2,3-dioxo-1,4-dihydroquinoxalin-6-yl)sulfonylamino]benzoate]
–	1.329	1.91	COc1cccc(C(=O)Nc2nc3nc(-c4ccccc4)cc(=O)n3[nH]2)c1 [Entry 140, 3-methoxy-N-(7-oxo-5-phenyl-1H-[1,2,4]triazolo[1,5-a]pyrimidin-2-yl)benzamide]
–	1.116	1.255	CCc1cc(=O)n2nc(NCc3ccccc3C)nc2[nH]1 [Entry 143, 5-ethyl-2-[(2-methylbenzyl)amino][1,2,4]triazolo[1,5-a]pyrimidin-7(4H)-one]
–	1.07	1.217	Cc1ccc(-c2ccc3nnc(C)n3n2)cc1S(=O)(=O)N1CCCC1 [Entry 146, 3-methyl-6-(4-methyl-3-pyrrolidin-1-ylsulfonylphenyl)-[1,2,4]triazolo[4,3-b]pyridazine]
–	1.05	1.215	Cc1nnc2ccc(-n3ncc4c3NC(=O)CC4c3ccc(O)cc3)nn12 (stereo not shown) [Entry 148, 4-(4-hydroxyphenyl)-1-(3-methyl[1,2,4]triazolo[4,3-b]pyridazin-6-yl)-1,4,5,7-tetrahydro-6H-pyrazolo[3,4-b]pyridin-6-one]
–	1.19	1.577	Cc1ccccc1C(=O)Nc1nc2nc(-c3ccccc3)cc(=O)n2[nH]1 [Entry 150, 2-methyl-N-(7-oxo-5-phenyl-1H-[1,2,4]triazolo[1,5-a]pyrimidin-2-yl)benzamide]
–	1.312	1.799	Cc1cccc(C(=O)Nc2nc3nc(-c4ccccc4)cc(=O)n3[nH]2)c1 [Entry 151, 3-methyl-N-(7-oxo-5-phenyl-1H-[1,2,4]triazolo[1,5-a]pyrimidin-2-yl)benzamide]
–	1.146	1.461	O=c1c2c([nH]c3nc(CNc4ccc(Br)cc4)nn13)CCC2 [Entry 152, 2-{[(4-bromophenyl)amino]methyl}-4,5,6,7-tetrahydro-8H-cyclopenta[d][1,2,4]triazolo[1,5-a]pyrimidin-8-one]
–	1.077	1.259	O=c1c2c([nH]c3nc(CNc4ccccc4F)nn13)CCC2 [Entry 153, 2-{[(2-fluorophenyl)amino]methyl}-4,5,6,7-tetrahydro-8H-cyclopenta[d][1,2,4]triazolo[1,5-a]pyrimidin-8-one]
–	1.013	1.282	Cc1ccc(Cl)cc1NCc1nc2[nH]c3c(c(=O)n2n1)CCC3 [Entry 154, 2-{[(5-chloro-2-methylphenyl)amino]methyl}-4,5,6,7-tetrahydro-8H-cyclopenta[d][1,2,4]triazolo[1,5-a]pyrimidin-8-one]
–	1.097	1.372	CCCc1cc(=O)n2nc(CNc3ccc(Cl)cc3)nc2[nH]1 [Entry 155, 2-{[(4-chlorophenyl)amino]methyl}-5-propyl[1,2,4]triazolo[1,5-a]pyrimidin-7(4H)-one]
–	1.212	1.516	CCOC(=O)c1c[nH]c2nc(NCc3cccc(Br)c3)nn2c1=O [Entry 156, ethyl 2-[(3-bromophenyl)methylamino]-7-oxo-1H-[1,2,4]triazolo[1,5-a]pyrimidine-6-carboxylate]
